Reference: patent publication US9433663B2, “Mobilization of hematopoietic stem cells” (Children's Hospital Medical Center, priority 2008, dated 2016)

Legend:
WASP = test: phosphorylation of WASP in 32D progenitors; type: cell-based, murine; conditions: FIG. 7D
Description: FIG. 7D. CASIN treatment in 32 progenitors led to dampened phosphorylation of WASP, […].

[1] = system: HSCs (IL7Ra^−Lin^−Sca-1^+c-Kit^+) in the BM; test: six-color FACS of BM HSPC compartments after treatment; type: in vivo; conditions: after CASIN injection, C57Bl/6 mice
Procedure: Whether CASIN administration can induce mobilization of HSC/Ps to peripheral blood of C57Bl/6 mice, mimicking the phenotype observed in Cdc42 conditional knockout mice, was evaluated. First of all, mobilization of hematopoietic progenitor cells was examined by CFU-C assays functionally (FIG. 3a). […] Secondarily, to further explore the ability of CASIN to mobilize LT-HSC which is crucial for long-term repopulation of the mobilized cells, serial transplantations were carried out, where 20 million PB from CASIN-mobilized C57Bl/6 mice was transplanted into primary recipient of NOD/SCID mice, and subsequent secondary and tertiary transplants were finished as well using prior BMs (FIG. 3c). Donor chimerisms were assessed by using H2K^b congenic marker which is positive for donors of C57Bl/6 strain and negative for recipients of NOD/SCID strain. […] Therefore, the studies show CASIN can efficiently mobilize colony-forming hematopoietic progenitors and LT-HSCs with self-renewal and multi-lineage differentiation capacity. […]
To immunophenotypically profile the multi-compartments of HSPCs in BM, FACS analysis of six-color staining was carried out as previously. […] The sub-compartments of HSC, LT-HSC, ST-HSC, and CLP were quantified accordingly.

[2] = system: human CD45^+ hematopoietic cells; test: mobilization of human CD45+ cells in NOD/SCID-hCB model; type: in vivo, NOD/SCID mice xenografted with human CD34^+ hCB cells; conditions: intravenous injection, by 20 min post administration
Procedure: (§1) To begin to study potential utility of CASIN in human hematopoietic stem cell mobilization, a series of cellular assays were carried out to determine the effects on human CD34^+ umbilical cord blood cells (HCBs). […] The effects of CASIN on human hematopoietic cell mobilization was therefore tested using a well established preclinical in vivo model (NOD/SCID-Hcb) of human hematopoietic function, where fresh CD34^+ hCB cells were transplanted into sub-lethally irradiated NOD/SCIDs by intrafemoral injection, and repopulated and maintained human hematopoietic reconstitution in the bone marrow of NOD/SCID recipient mice (FIG. 9b, FIG. 11) (Larochelle, A. et al. Nat Med 2, 1329-1337 (1996); Bhatia, M., et al. Proc Natl Acad Sci USA 94, 5320-5325 (1997)). Intravenous injections of CASIN were applied when human cells were well engrafted in the NOD/SCID recipients.
C57BL/6, NOD/SCID, NOD/SCID-SGM3 and NOD/SCIDγC−/− (NOG) were in house bred in the animal barrier facility of Cincinnati Children's Hospital Medical Center (CCHMC) and used at the age of 6-8 weeks old. Cultured N-RasMA93 cells were injected into NOD/SCIDγC−/− mice by tail vein. Freshly thawed CD34^+ hCB cells were transplanted into NOD/SCID mice by intrafemoral injection.

[3] = system: human CD34^+ umbilical cord blood cells; test: flow cytometry of F-actin polymerization in human CD34+ HCB cells; type: cell-based; conditions: human CD34^+ HCBs, SDF-1α induced
Procedure: FIG. 4A. SDF-1α induced F-actin polymerization over time without or with gradient CASIN treatment, determined by MFI using FACS analysis.
as §1

[4] = system: leukemia initiating cells (LICs); type: in vivo
Description: Like normal HSCs, their malignant counterpart, leukemia initiating cells (LICs) reside in their BM niches that provide the structural and physiological conditions supporting their survival and growth. LICs are resistant to traditional chemotherapy by interacting with their BM microenvironment, which are the culprits of leukemia relapses after a period of remission induced by chemotherapy. Detachment of LICs from their niche by CASIN would be a valuable supplementary therapy to the traditional cancer therapies (e.g., chemotherapies). First of all, in vitro effects of CASIN were examined in adhesion, migration, and F-actin polymerization of LICs, each of which is independently important for the retention of LICs in BM niches. Retroviral transduction of an MLL-AF9 fusion cDNA together with N-Ras oncogene into normal human CD34^+cord blood cells led to the establishment of cultures of N-Ras-MA93 cells that can initiate acute myeloid leukemia in NOG mice. […] To address it, a human AML model was set up by transplanting N-RasMA93 cells into NOG mice intravenously.
C57BL/6, NOD/SCID, NOD/SCID-SGM3 and NOD/SCIDγC−/− (NOG) were in house bred in the animal barrier facility of Cincinnati Children's Hospital Medical Center (CCHMC) and used at the age of 6-8 weeks old. Cultured N-RasMA93 cells were injected into NOD/SCIDγC−/− mice by tail vein. […]

LT-HSC = test: serial transplantation of CASIN-mobilized PB into NOD/SCID mice; type: in vivo
Procedure: Whether CASIN administration can induce mobilization of HSC/Ps to peripheral blood of C57Bl/6 mice, mimicking the phenotype observed in Cdc42 conditional knockout mice, was evaluated. First of all, mobilization of hematopoietic progenitor cells was examined by CFU-C assays functionally (FIG. 3a). […] Secondarily, to further explore the ability of CASIN to mobilize LT-HSC which is crucial for long-term repopulation of the mobilized cells, serial transplantations were carried out, where 20 million PB from CASIN-mobilized C57Bl/6 mice was transplanted into primary recipient of NOD/SCID mice, and subsequent secondary and tertiary transplants were finished as well using prior BMs (FIG. 3c). Donor chimerisms were assessed by using H2K^b congenic marker which is positive for donors of C57Bl/6 strain and negative for recipients of NOD/SCID strain. […] Therefore, the studies show CASIN can efficiently mobilize colony-forming hematopoietic progenitors and LT-HSCs with self-renewal and multi-lineage differentiation capacity. Thirdly, to further investigate the potential of CASIN to vacate the BM niche after mobilization, six-color staining of the BM cells was performed from C57Bl/6 mice with or without CASIN treatment followed by FACS analysis. […] Therefore, a transient decrease in BM and a concomitant increase in peripheral organs of HSCs would be beneficial to facilitating the subsequent HSC transplantation.
To functionally define the LT-HSC, serial transplantations of mobilized PB from C57Bl/6 mice into sublethally irradiated NOD/SCID mice were carried out. Briefly, 2×10^7 PB cells were harvested 40 hrs after CASIN mobilization, and subsequently transplanted to a sublethally irradiated primary recipient. Chimerisms of donor-derived cells in the BM and PB were monitored over time by FACS analysis of the congenic marker H2K^b. Subsequent secondary and tertiary transplantations were performed using prior BM cells, and monitored by FACS analysis as well.

[5] = system: PIP2 induced F-actin assembly; conditions: PIP2 induced F-actin assembly in xenopus egg extracts; read-out: IC50 (dose required to inhibit the maximum polymerization rate by 50%); cited from earlier work

## OCCNC1CCCc2c1[nH]c1ccc(-c3ccccc3)cc21 (stereo not shown) [CASIN]
WASP
  phosphorylation of WASP: dampened
[1]
  number of genotypic HSCs (IL7Ra^−Lin^−Sca-1^+c-Kit^+) in the BM: decreased significantly
[2]
  human CD45^+ hematopoietic cells mobilized to the peripheral blood: significant amount of human CD45^+ hematopoietic cells mobilized to the peripheral blood
[3]
  F-actin polymerization: inhibited F-actin polymerization of these human progenitors dose-dependently
[4]; in vivo
  apoptosis or cell death of leukemia cells in vivo: did not elicit significant apoptosis or cell death
[4]; intravenous, by 20 min post injection
  mobilization of LICs to the peripheral blood: efficiently mobilized the LICs to the peripheral blood transiently
LT-HSC; 1-3 mo post transplantation of PB from CASIN-mobilized mice
  PB reconstitution of donor-derived cells in the primary recipient: reconstituted considerable percentages of total PB
LT-HSC; BM and PB of the primary recipients
  multi-lineage differentiation of engrafted donor cells: had undergone multi-lineage differentiations
LT-HSC; primary through tertiary transplantation
  engraftment of donor-derived cells in BM: engraftment of donor-derived cells was detected
[5]
  IC50: 2000 nM
